From patent publication US20150105252A1, “SUBSTITUTED PYRAZOLES AS HERBICIDES” (E I DU PONT DE NEMOURS AND COMPANY, priority 2013, published 2015)

What was measured:
morningglory [1] = test: Test A postemergence; format: in vivo, Ipomoea spp.
In short: (§1)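 Scoring was visual, on a scale where 100 means complete control and 0 means no effect, comparing treated with untreated plants around 10 days post-application. Compounds in surfactant-containing non-phytotoxic solvent were sprayed onto soil preemergence or onto one- to two-leaf seedlings (2–10 cm) postemergence.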

wheat = test: Test A postemergence; format: in vivo, Triticum aestivum
In short: as §1

soybean = test: Test C preemergence; format: in vivo, Glycine max; conditions: for Soybean plant response rating: preemergence
In short: (§2)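 In this greenhouse assay, seeded soil (loam plus sand) or emerged seedlings in peat-vermiculite medium were treated with formulated compound. Roughly two weeks later (13–15 days), each species was scored visually relative to controls, from 0 for no effect to 100 for complete control.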

barnyardgrass = test: Test C preemergence; format: in vivo, Echinochloa crus-galli; conditions: for Barnyardgrass plant response rating: preemergence
In short: as §2

oat, wild = test: Test C postemergence; format: in vivo, Avena fatua
In short: as §2

lambsquarters = test: Test C preemergence; format: in vivo, Chenopodium album; conditions: for Lambsquarters plant response rating: preemergence
In short: as §2

velvetleaf [2] = test: Test A postemergence; format: in vivo, Abutilon theophrasti
In short: as §1

chickweed = test: Test C postemergence; format: in vivo, Stellaria media
In short: as §2

sedge, umbrella = test: Test B flood; format: in vivo, Cyperus difformis; conditions: 250 g ai/ha, visual rating on 0 to 100 scale (0 no effect, 100 complete control), 13 to 15 days
In short: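 Two-leaf-stage plants, pots flooded (3 cm above soil) and treated through the water, which stayed at that depth. After 13–15 days in greenhouse conditions, visual assessment versus controls: 0 is no effect, 100 complete control, dash means no result.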

morningglory [3] = test: Test C postemergence; format: in vivo, Ipomoea coccinea
In short: as §2

velvetleaf [4] = test: Test C preemergence; format: in vivo, Abutilon theophrasti; conditions: for Velvetleaf plant response rating: preemergence
In short: as §2

velvetleaf [5] = test: Test C postemergence; format: in vivo, Abutilon theophrasti
In short: as §2

johnsongrass = test: Test C postemergence; format: in vivo, Sorghum halepense
In short: as §2

morningglory [6] = test: Test C preemergence; format: in vivo, Ipomoea coccinea; conditions: for Morningglory plant response rating: preemergence
In short: as §2

[7] = Postemergence, 500 g ai/ha, visual rating after approx. 10 days, 0 to 100 scale (0 no effect, 100 complete control)
[8] = postemergence, 125 g ai/ha, about 10 days, visual rating on 0 to 100 scale (0 no effect, 100 complete control)
[9] = 31 g ai/ha, visual rating, scale 0 to 100 (0 no effect, 100 complete control), 13 to 15 days
[10] = 62 g ai/ha, scale 0 to 100 (0 no effect, 100 complete control), 13 to 15 days
[11] = 125 g ai/ha, scale 0 to 100, 0 is no effect, 100 is complete control
[12] = Postemergence, 31 g ai/ha, visually evaluated after 13 to 15 days
[13] = postemergence, 62 g ai/ha, scale 0 to 100
[14] = postemergence, 250 g ai/ha, scale 0 to 100 (0 no effect, 100 complete control)
[15] = postemergence, 125 g ai/ha, scale 0 to 100, 0 no effect, 100 complete control

CCc1cc(C(=O)NCC(F)(F)F)nn1Cc1nc(C(F)(F)F)nn1C [Compound 107]
30: Wheat plant response rating (wheat; [8]) | Plant response rating (scale of 0 to 100 where 0 is no effect and 100 is complete control), Velvetleaf (velvetleaf [5]; [12]) | Velvetleaf plant response rating (velvetleaf [5]; [13])
95: Plant response rating (scale of 0 to 100), Soybean (soybean; Preemergence, 250 g ai/ha) | Soybean plant response rating (soybean; [10]) | Soybean plant response rating (soybean; [11])
60: Velvetleaf plant response rating (velvetleaf [4]; [9])
70: Plant response rating, Johnsongrass (johnsongrass; [14])
5: Plant response rating (scale of 0 to 100 where 0 is no effect and 100 is complete control), Oat, Wild (oat, wild; [12]) | Oat, Wild plant response rating (oat, wild; [13]) | Plant response rating, Oat, Wild (oat, wild; [15]) | Plant response rating, Johnsongrass (johnsongrass; [15])
85: Velvetleaf plant response rating (velvetleaf [4]; [10])
50: Plant response rating, Velvetleaf (velvetleaf [5]; [14])
0: Plant response rating (scale of 0 to 100 where 0 is no effect and 100 is complete control), Johnsongrass (johnsongrass; [12]) | Johnsongrass plant response rating (johnsongrass; [13])
40: Barnyardgrass plant response rating (barnyardgrass; 31 g ai/ha, scale 0 to 100 (0 no effect, 100 complete control), 13 to 15 days) | Plant response rating, Oat, Wild (oat, wild; [14])
90: Morningglory plant response rating (morningglory [1]; [8]) | Morningglory plant response rating (morningglory [6]; [9])
100: Morningglory plant response rating (morningglory [1]; [7]) | Plant response rating (scale of 0 to 100), Barnyardgrass (barnyardgrass; Preemergence, 250 g ai/ha) | Barnyardgrass plant response rating (barnyardgrass; [10]) | Barnyardgrass plant response rating (barnyardgrass; [11]) | Plant response rating (scale of 0 to 100), Lambsquarters (lambsquarters; Preemergence, 250 g ai/ha) | Lambsquarters plant response rating (lambsquarters; [9]) | Lambsquarters plant response rating (lambsquarters; [10]) | Lambsquarters plant response rating (lambsquarters; [11]) | Velvetleaf plant response rating (velvetleaf [2]; [7]) | Plant response rating (scale of 0 to 100 where 0 is no effect and 100 is complete control), Chickweed (chickweed; [12]) | Chickweed plant response rating (chickweed; [13]) | Plant response rating, Chickweed (chickweed; [14]) | Plant response rating, Chickweed (chickweed; [15]) | Plant response rating (scale of 0 to 100), Velvetleaf (velvetleaf [4]; Preemergence, 250 g ai/ha) | Velvetleaf plant response rating (velvetleaf [4]; [11]) | Plant response rating (scale of 0 to 100), Morningglory (morningglory [6]; Preemergence, 250 g ai/ha) | Morningglory plant response rating (morningglory [6]; [10]) | Morningglory plant response rating (morningglory [6]; [11])
35: Plant response rating, Velvetleaf (velvetleaf [5]; [15])
75: Plant response rating (scale of 0 to 100 where 0 is no effect and 100 is complete control), Morningglory (morningglory [3]; [12])
15: Soybean plant response rating (soybean; [9])
80: Wheat plant response rating (wheat; [7]) | Velvetleaf plant response rating (velvetleaf [2]; [8]) | Plant response rating, Sedge, Umbrella (sedge, umbrella) | Morningglory plant response rating (morningglory [3]; [13]) | Plant response rating, Morningglory (morningglory [3]; [14]) | Plant response rating, Morningglory (morningglory [3]; [15])
